# Values of other authors as cited in publication PMC11214510 (Saudi Journal of Biological Sciences, 2024).
# Tested on: AChE
# Conditions: mice, long-term supplementation, 40 mg/kg; ref Kasbe et al., 2015
smiles,measurement,value
O=c1c2cc(O)c(O)cc2oc2cc(O)c([C@@H]3O[C@H](CO)[C@@H](O)[C@H](O)[C@H]3O)c(O)c12 [mangiferin],AChE expression produced by AlCl3,inhibits the expression of AChE
